Reference: the SangsterLogP compilation

Assay: method code SF, from DOI: 10.1016/0360-3016(89)90899-7, PMID: 2703405
Conditions: pH 7.4

SMILES | logD
Nc1n[n+]([O-])c2ccccc2[n+]1[O-] | -0.3
[O-][n+]1cn[n+]([O-])c2ccccc21 | -0.8
C=CCOc1ccc2c(c1)[n+]([O-])nc(N)[n+]2[O-] | 0.76
Nc1n[n+]([O-])c2cc(OCC(O)CO)ccc2[n+]1[O-] (stereo unspecified) | -1.1
COc1ccc2c(c1)[n+]([O-])c(N)n[n+]2[O-] | 0
Nc1n[n+]([O-])c2ccc(Cl)cc2[n+]1[O-] | 0.41
CC(=O)Nc1n[n+]([O-])c2ccccc2[n+]1[O-] | -0.6
COc1n[n+]([O-])c2ccccc2[n+]1[O-] | -0.3
CC(=O)Nc1n[n+]([O-])c2cc(C)ccc2[n+]1[O-] | -0.4
Cc1ccc2c(c1)[n+]([O-])nc(N)[n+]2[O-] | 0.2
CC(=O)CC(=O)Nc1n[n+]([O-])c2ccccc2[n+]1[O-] | -1.4
